Measured values taken from patent US9346809B2 (LEO PHARMA A/S, priority 2009, dated 2016).
Where two headings read alike, the source gives them in different places.

Assays:
Format in all cases: biochemical
[1] = target: T1, JAK2 (catalytic domain, His-tag) (Homo sapiens, UniProt O60674); experiment: JAK kinase assay (HTRF, phosphorylation of TK substrate-biotin), JAK2; details: ATP at Km (4 μM)
T1 construct: All four purified enzymes contain only the catalytic domain; His (N); purchased Carna Biosciences, Inc; host or cells: baculovirus expression system
Method in brief: (§1)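 Catalytic-domain kinases phosphorylated 1 μM biotin-TK substrate at ATP Km (JAK1 7 μM, JAK2 4 μM, JAK3 2 μM, TYK2 13 μM) in Hepes pH 7.0 with DTT and MgCl2, for 20-30 min at RT; JAK1 and TYK2 also had 50 nM SEB. Detection was by HTRF (streptavidin-XL665/Cryptate antibody) overnight, giving EC50.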

[2] = target: T2, JAK1 (aa 850-1154, catalytic domain, GST-tag) (Homo sapiens, UniProt P23458); experiment: JAK kinase assay (HTRF, phosphorylation of TK substrate-biotin), JAK1; details: ATP at Km (7 μM)
T2 construct: JAK1 (aa 850-1154) and TYK2 (aa 871-1187) are expressed with an N-terminally fused GST-tag; GST (N); purchased Carna Biosciences, Inc; host or cells: baculovirus expression system
Method in brief: as §1

[3] = target: T3, JAK3 (catalytic domain, His-tag) (Homo sapiens, UniProt P52333); experiment: JAK kinase assay (HTRF, phosphorylation of TK substrate-biotin), JAK3; details: ATP at Km (2 μM)
T3 construct: All four purified enzymes contain only the catalytic domain; His (N); purchased Carna Biosciences, Inc; host or cells: baculovirus expression system
Method in brief: as §1

[4] = target: T4, TYK2 (aa 871-1187, catalytic domain, GST-tag) (Homo sapiens, UniProt P29597); experiment: JAK kinase assay (HTRF, phosphorylation of TK substrate-biotin), TYK2; details: ATP at Km (13 μM)
T4 construct: JAK1 (aa 850-1154) and TYK2 (aa 871-1187) are expressed with an N-terminally fused GST-tag; GST (N); purchased Carna Biosciences, Inc; host or cells: baculovirus expression system
T4 sequence (P29597 871-1187): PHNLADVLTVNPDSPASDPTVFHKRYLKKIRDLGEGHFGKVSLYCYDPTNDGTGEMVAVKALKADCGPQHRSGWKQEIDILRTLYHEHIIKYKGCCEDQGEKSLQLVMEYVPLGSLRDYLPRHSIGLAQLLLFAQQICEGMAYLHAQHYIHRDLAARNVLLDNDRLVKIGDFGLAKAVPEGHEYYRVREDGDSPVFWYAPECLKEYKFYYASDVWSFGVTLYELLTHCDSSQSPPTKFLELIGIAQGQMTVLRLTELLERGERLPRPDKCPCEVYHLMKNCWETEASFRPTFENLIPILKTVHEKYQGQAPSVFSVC
Method in brief: as §1

[5] = read-out: JAK2 kinase inhibitory activity (EC50 indicator)
[6] = read-out: JAK1 kinase inhibitory activity (EC50 indicator)
[7] = read-out: JAK3 kinase inhibitory activity (EC50 indicator)
[8] = read-out: TYK2 kinase inhibitory activity (EC50 indicator)
[9] = HTRF assay, read-out: JAK2 kinase inhibitory activity (EC50 indicator)
[10] = HTRF assay, read-out: JAK1 kinase inhibitory activity (EC50 indicator)
[11] = HTRF assay, read-out: JAK3 kinase inhibitory activity (EC50 indicator)
[12] = HTRF assay, read-out: TYK2 kinase inhibitory activity (EC50 indicator)

T3 sequence (P52333 822-1111 limits assumed): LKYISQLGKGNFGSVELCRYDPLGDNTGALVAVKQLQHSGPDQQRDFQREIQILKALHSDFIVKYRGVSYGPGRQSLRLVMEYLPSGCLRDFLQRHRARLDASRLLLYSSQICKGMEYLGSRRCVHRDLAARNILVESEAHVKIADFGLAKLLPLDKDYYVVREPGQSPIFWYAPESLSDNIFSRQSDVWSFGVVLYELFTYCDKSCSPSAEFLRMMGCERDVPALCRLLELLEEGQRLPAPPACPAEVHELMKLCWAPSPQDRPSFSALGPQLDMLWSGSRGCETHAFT
T1 sequence (O60674 849-1124 limits assumed): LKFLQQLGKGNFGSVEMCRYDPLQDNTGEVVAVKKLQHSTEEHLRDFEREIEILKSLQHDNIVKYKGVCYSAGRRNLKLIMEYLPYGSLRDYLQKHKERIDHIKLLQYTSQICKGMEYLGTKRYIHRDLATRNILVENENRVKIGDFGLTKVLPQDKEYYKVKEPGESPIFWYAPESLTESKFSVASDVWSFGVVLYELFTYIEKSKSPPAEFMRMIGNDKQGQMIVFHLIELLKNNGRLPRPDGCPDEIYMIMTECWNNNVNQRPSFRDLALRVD
T2 sequence (P23458 850-1154): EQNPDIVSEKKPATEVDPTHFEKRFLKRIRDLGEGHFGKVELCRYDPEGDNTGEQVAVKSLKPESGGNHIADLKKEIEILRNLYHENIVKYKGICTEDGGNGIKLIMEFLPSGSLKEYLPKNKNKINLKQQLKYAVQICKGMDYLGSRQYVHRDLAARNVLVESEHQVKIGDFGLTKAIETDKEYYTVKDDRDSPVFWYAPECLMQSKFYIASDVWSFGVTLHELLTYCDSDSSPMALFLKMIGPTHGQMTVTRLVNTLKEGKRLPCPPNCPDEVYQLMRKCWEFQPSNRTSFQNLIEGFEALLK

| Structure (SMILES) | EC50 [1, 5] | EC50 [2, 6] | EC50 [3, 7] | EC50 [4, 8] | EC50 [1, 9] | EC50 [2, 10] | EC50 [3, 11] | EC50 [4, 12] | other results |
| --- | --- | --- | --- | --- | --- | --- | --- | --- | --- |
| N#Cc1ccc(CC(=O)N2CCN(c3ncnc4[nH]ccc34)CC23CC3)cc1 [Example 35, 4-{2-Oxo-2-[7-(7H-pyrrolo[2,3-d]pyrimidin-4-yl)-4,7-diazaspiro[2.5]oct-4-yl]-ethyl}benzonitrile] | < 0.1 µM | < 0.1 µM | < 0.1 µM | < 0.1 µM |  |  |  |  |  |
| S=C(NCc1ccccc1)N1CCN(c2ncnc3[nH]ccc23)CC12CC2 [Example 438, 7-(7H-Pyrrolo[2,3-d]pyrimidin-4-yl)-4,7-diaza-spiro[2.5]octane-4-carbothioic acid benzylamide] |  |  |  |  |  |  |  |  | EC50 ([1]; HTRF assay, read-out: JAK2 kinase inhibitory activity (EC50)): < 0.1 µM; EC50 ([2]; HTRF assay, read-out: JAK1 kinase inhibitory activity (EC50)): < 0.1 µM; EC50 ([3]; HTRF assay, read-out: JAK3 kinase inhibitory activity (EC50)): 0.1 to 0.5 µM; EC50 ([4]; HTRF assay, read-out: TYK2 kinase inhibitory activity (EC50)): 0.1 to 0.5 µM |
| N#Cc1ccc(CC(=O)N2CCN(c3nc(NC(=O)c4ccno4)nc4[nH]ccc34)CC23CC3)cc1 [Example 99, Isoxazole-5-carboxylic acid (4-{4-[2-(4-cyano-phenyl)-acetyl]-4,7-diaza-spiro[2.5]oct-7-yl}-7H-pyrrolo[2,3-d]pyrimidin-2-yl)-amide] | < 0.1 µM | 0.1 to 0.5 µM | > 0.5 µM | > 0.5 µM |  |  |  |  |  |
| N#CCCNS(=O)(=O)c1ccc(C(=O)N2CCN(c3ncnc4[nH]ccc34)CC23CC3)cc1 [Example 395, N-(2-Cyano-ethyl)-4-[7-(7H-pyrrolo[2,3-d]pyrimidin-4-yl)-4,7-diaza-spiro[2.5]octane-4-carbonyl]-benzenesulfonamide] |  |  |  |  | < 0.1 µM | < 0.1 µM | < 0.1 µM | < 0.1 µM |  |
| CC(C#N)c1cccc(C(=O)N2CCN(c3ncnc4[nH]ccc34)CC23CC3)c1 (stereo not shown) [Example 8, 2-{3-[7-(7H-Pyrrolo[2,3-d]pyrimidin-4-yl)-4,7-diazaspiro[2.5]octane-4-carbonyl]phenyl}propionitrile] | < 0.1 µM | < 0.1 µM | 0.1 to 0.5 µM | > 0.5 µM |  |  |  |  |  |
| O=C(c1ccc(S(=O)(=O)NCc2cccs2)cc1)N1CCN(c2ncnc3[nH]ccc23)CC12CC2 [Example 204, 4-[7-(7H-Pyrrolo[2,3-d]pyrimidin-4-yl)-4,7-diaza-spiro[2.5]octane-4-carbonyl]-N-thiophen-2-ylmethyl-benzenesulfonamide] | < 0.1 µM | < 0.1 µM | < 0.1 µM | 0.1 to 0.5 µM |  |  |  |  |  |
| O=C(c1cc2ccc(F)cc2[nH]1)N1CCN(c2ncnc3[nH]ccc23)CC12CC2 [Example 363, (6-Fluoro-1H-indol-2-yl)-[7-(7H-pyrrolo[2,3-d]pyrimidin-4-yl)-4,7-diaza-spiro[2.5]oct-4-yl]-methanone] |  |  |  |  | < 0.1 µM | < 0.1 µM | < 0.1 µM | 0.1 to 0.5 µM |  |
| CC(=O)N1CCC(C(=O)N2CCN(c3ncnc4[nH]ccc34)CC23CC3)CC1 [Example 43, 1-{4-[7-(7H-Pyrrolo[2,3-d]pyrimidin-4-yl)-4,7-diazaspiro[2.5]octane-4-carbonyl]piperidin-1-yl}ethanone] | 0.1 to 0.5 µM | 0.1 to 0.5 µM | 0.1 to 0.5 µM | > 0.5 µM |  |  |  |  |  |
| O=C(c1csc2ccccc12)N1[C@H]2CC[C@H]1CN(c1ncnc3[nH]ccc13)C2 [Example 246, Benzo[b]thiophen-3-yl-[3-(7H-pyrrolo[2,3-d]pyrimidin-4-yl)-3,8-diaza-bicyclo[3.2.1]oct-8-yl]-methanone] |  |  |  |  | < 0.1 µM | < 0.1 µM | < 0.1 µM | 0.1 to 0.5 µM |  |
| N#CCc1ccc(C(=O)N2CCN(c3ncnc4[nH]ccc34)CC23CC3)cc1 [Example 18, {4-[7-(7H-Pyrrolo[2,3-d]pyrimidin-4-yl)-4,7-diazaspiro[2.5]octane-4-carbonyl]-phenyl}acetonitrile] | < 0.1 µM | < 0.1 µM | 0.1 to 0.5 µM | 0.1 to 0.5 µM |  |  |  |  |  |
| CC1CN(C(=O)c2ccc(C#N)cc2)C2(CC2)CN1c1ncnc2[nH]ccc12 (stereo not shown) [Example 148, 4-[6-Methyl-7-(7H-pyrrolo[2,3-d]pyrimidin-4-yl)-4,7-diaza-spiro[2.5]octane-4-carbonyl]-benzonitrile] | < 0.1 µM | < 0.1 µM | 0.1 to 0.5 µM | > 0.5 µM |  |  |  |  |  |
| NS(=O)(=O)c1ccc(C(=O)N2C3CCC2CN(c2ncnc4[nH]ccc24)C3)o1 [Example 203] | < 0.1 µM | < 0.1 µM | < 0.1 µM | > 0.5 µM |  |  |  |  |  |
| O=C1c2ccccc2CC1C(=O)N1C2CCC1CN(c1ncnc3[nH]ccc13)C2 (stereo not shown) [Example 133, 2-[3-(7H-Pyrrolo[2,3-d]pyrimidin-4-yl)-3,8-diaza-bicyclo[3.2.1]octane-8-carbonyl]-indan-1-one] | 0.1 to 0.5 µM | > 0.5 µM | > 0.5 µM | > 0.5 µM |  |  |  |  |  |
| Cc1c[nH]c2ncnc(N3CCN(C(=O)c4cnc5ccccc5n4)C4(CC4)C3)c12 [Example 120, [7-(5-Methyl-7H-pyrrolo[2,3-d]pyrimidin-4-yl)-4,7-diaza-spiro[2.5]oct-4-yl]-quinoxalin-2-yl-methanone] | > 0.5 µM | > 0.5 µM | > 0.5 µM | > 0.5 µM |  |  |  |  |  |
| CC1CN(C(=O)c2cccc(C#N)c2)C2(CC2)CN1c1ncnc2[nH]ccc12 (stereo not shown) [Example 145, 3-[6-Methyl-7-(7H-pyrrolo[2,3-d]pyrimidin-4-yl)-4,7-diaza-spiro[2.5]octane-4-carbonyl]-benzonitrile] | < 0.1 µM | < 0.1 µM | 0.1 to 0.5 µM | 0.1 to 0.5 µM |  |  |  |  |  |
| O=C(c1cccc(OC(F)(F)F)c1)N1[C@@H]2CC[C@@H]1CN(c1ncnc3[nH]ccc13)C2 [Example 244, [3-(7H-Pyrrolo[2,3-d]pyrimidin-4-yl)-3,8-diaza-bicyclo[3.2.1]oct-8-yl]-(3-trifluoromethoxy-phenyl)-methanone] |  |  |  |  | < 0.1 µM | < 0.1 µM | < 0.1 µM | > 0.5 µM |  |
| CNS(=O)(=O)c1cc(C(=O)N2CCN(c3ncnc4[nH]ccc34)CC23CC3)sc1C [Example 375, 2-Methyl-5-[7-(7H-pyrrolo[2,3-d]pyrimidin-4-yl)-4,7-diaza-spiro[2.5]octane-4-carbonyl]-thiophene-3-sulfonic acid methylamide] |  |  |  |  | < 0.1 µM | < 0.1 µM | < 0.1 µM | 0.1 to 0.5 µM |  |
| O=C(c1ccc(-c2ccccc2)s1)N1CCN(c2ncnc3[nH]ccc23)CC12CC2 [Example 215, (5-Phenyl-thiophen-2-yl)-[7-(7H-pyrrolo[2,3-d]pyrimidin-4-yl)-4,7-diaza-spiro[2.5]oct-4-yl]-methanone] |  |  |  |  | < 0.1 µM | < 0.1 µM | 0.1 to 0.5 µM | 0.1 to 0.5 µM |  |
| N#Cc1ccccc1CC(=O)N1CCN(c2ccnc3[nH]ccc23)CC12CC2 [Example 237, 2-{2-Oxo-2-[7-(1H-pyrrolo[2,3-b]pyridin-4-yl)-4,7-diaza-spiro[2.5]oct-4-yl]-ethyl}-benzonitrile] |  |  |  |  | 0.1 to 0.5 µM | > 0.5 µM | 0.1 to 0.5 µM | > 0.5 µM |  |
| CS(=O)(=O)c1ccc(C(=O)N2CCN(c3ncnc4[nH]ccc34)CC23CC3)cc1N1CCCC1 [Example 194, (4-Methanesulfonyl-3-pyrrolidin-1-yl-phenyl)-[7-(7H-pyrrolo[2,3-d]pyrimidin-4-yl)-4,7-diaza-spiro[2.5]oct-4-yl]-methanone] | < 0.1 µM | < 0.1 µM | 0.1 to 0.5 µM | > 0.5 µM |  |  |  |  |  |
| O=C(Cc1ccc(C(F)(F)F)cc1)N1[C@@H]2CC[C@@H]1CN(c1ncnc3[nH]ccc13)C2 [Example 349, 1-[3-(7H-Pyrrolo[2,3-d]pyrimidin-4-yl)-3,8-diaza-bicyclo[3.2.1]oct-8-yl]-2-(4-trifluoromethyl-phenyl)-ethanone] |  |  |  |  | 0.1 to 0.5 µM | 0.1 to 0.5 µM | 0.1 to 0.5 µM | > 0.5 µM |  |
| CC(C)(C)OC(=O)N1CCN(c2ncnc3[nH]ccc23)CC12CC2 [Example 45, 7-(7H-pyrrolo[2,3-d]pyrimidin-4-yl)-4,7-diazaspiro[2.5]octane-4-carboxylic acid tert-butyl ester] | < 0.1 µM | < 0.1 µM | < 0.1 µM | > 0.5 µM |  |  |  |  |  |
